Tests used:
murine HSCs = experiment: Example 7 competitive repopulating assay of mobilized HSCs; assay type: in vivo, mice; conditions: competitive repopulating experiments, CASIN-mobilized C57Bl/6 donors
Source text: Although mobilization of HPC may be of use for short-term repopulation in a transplant setting, HSCs are required for long-term repopulation. To assess mobilization effect of CASIN on murine HSCs, a competitive repopulating assay is used. Basically, donor cells are harvested from peripheral blood of C57Bl/6 mice (CD45.2) after mobilization with CASIN or control medium. BM cells from nonirradiated B6.BoyJ (CD45.1) mice are served as competitor cells. Dilutions of donor blood cells from mobilized C57Bl/6 mice that contain long-term repopulating (LTR) cells compete with marrow cells of recipient B6.BoyJ mice at ratio of 3:1, 2:1, and 1:1 for engraftment in lethally-irradiated recipients. Donor chimerism is assessed using CD45 congenic markers by flow cytometry at 1, 2, 3, and 4 months posttransplantation. […] Donor chimerism again is assessed in the secondary mice based on the CD45 congenic markers.
The mobilization effect of CASIN on HSCs in comparison or combination with G-CSF is assessed under the following four mobilization groups: (1) Control medium mobilization group; (2) CASIN mobilization group; (3) G-CSF mobilization group (G-CSF: twice a day for 2 days); (4) CASIN plus G-CSF (twice a day for 2 days) mobilization group. […] The mobilization effects under different groups are analyzed based on the chimerism of donor-derived cells.

Cdc42WT/WT MEF cells = experiment: Example 7 adhesion, migration, actin polymerization in MEF cells; assay type: cell-based, mouse; conditions: in vitro
Protocol: To further verify the specificity of CASIN on Cdc42 activity inhibition, adhesion, migration, Actin polymerization is evaluated in both Cdc42−/− and Cdc42WT/WT MEF cells under the following five groups: (1) Cdc42WT/WT cells without treatment; (2) Cdc42−/− cells without treatment; (3) Cdc42WT/WT cells treated with CASIN; (4) Cdc42WT/WT cells treated with control medium; (5) Cdc42−/− cells treated with CASIN, in order to verify that CASIN function through inhibiting Cdc42. similarly, activities of the down stream effectors of Cdc42, Rac, and Rho under the five groups are monitored by western blot as above.

32D myeloid progenitors = experiment: transwell migration of 32D progenitors towards SDF1α; assay type: cell-based, murine; conditions: dose-dependent manner
Source text: To shed light on potential roles of CASIN in HSPC mobilization, the effects of CASIN on Cdc42-related cellular functions was studied, including adhesion, migration, and F-actin polymerization of progenitor cells in 32D myeloid progenitors. […] SDF-1α stimulation causes a reorganization of F-actin into a cortical ring around the cells. […] Thirdly, to gain further insight into cellular specificity and efficacy of CASIN, and also to rule out possible toxic effects by CASIN, Cdc42-involved BM progenitor cell functions were examined, including proliferation, adhesion, migration, and F-actin polymerization, in Cdc42^+/+ cells in parallel with Cdc42^−/− cells. In line with additional studies in a Cdc42 conditional knockout mouse model as described herein, Cdc42^−/− LDBM cells have increased CFU-forming progenitors compared to those of Cdc42^+/+.

Fancc−/− mice = experiment: Example 10 HSC/P mobilization in Fancc−/− mice; conditions: mouse, in vivo
Protocol: The effects of CASIN on HSC/P mobilization in Fancc−/− mice are investigated under four groups in parallel with WT mice: (1) Control group; (2) G-CSF group: 2.5 μg G-CSF per mouse, twice a day for 4 d120; (3) CASIN group: 2.5 mg/Kg; (4) combination of CASIN and G-CSF: one injection of CASIN is given 40 h before the end of 4 d G-CSF administration.
Fancc−/− or WT mice are mobilized with regimens corresponding to the four experimental groups. Then PB are harvested by cardiac puncture. Phenotypically, the absolute number and percentage of HSC/Ps in PB after mobilization are determined as those of LSK (Lin− Sca+ c-Kit+) cells by flow cytometry. Functionally, CFU-C assay is performed in triplicate for each mouse by using PB of mice from different experimental groups, and CFU-GM, CFU-GEMM, BFU-E, and CFU-E are distinguished by morphology and using cytokine combinations. Furthermore, the long-term repopulation capacity of the mobilized HSCs is evaluated using a competitive repopulating assay and subsequent secondary transplantation as discussed above.

Cdc42 [1] = molecular target: Cdc42 (Mus musculus, UniProt P60766); experiment: Rho GTPase pull-down of BM cells after in vivo administration; set-up: from tissue; host or cells: bone marrow (LDBM) cells of C57Bl/6 mice; conditions: C57Bl/6 mice; FIG. 8a legend: BM cells harvested 20 mins after CASIN administration
Protocol: FIG. 8A. CASIN inhibited Cdc42 activity in BM cells harvested from C57Bl/6 mice 20 mins after CASIN administration.
Whether CASIN administration can induce mobilization of HSC/Ps to peripheral blood of C57Bl/6 mice, mimicking the phenotype observed in Cdc42 conditional knockout mice, was evaluated. First of all, mobilization of hematopoietic progenitor cells was examined by CFU-C assays functionally (FIG. 3a). […] Secondarily, to further explore the ability of CASIN to mobilize LT-HSC which is crucial for long-term repopulation of the mobilized cells, serial transplantations were carried out, where 20 million PB from CASIN-mobilized C57Bl/6 mice was transplanted into primary recipient of NOD/SCID mice, and subsequent secondary and tertiary transplants were finished as well using prior BMs (FIG. 3c). Donor chimerisms were assessed by using H2K^b congenic marker which is positive for donors of C57Bl/6 strain and negative for recipients of NOD/SCID strain. […] Therefore, the studies show CASIN can efficiently mobilize colony-forming hematopoietic progenitors and LT-HSCs with self-renewal and multi-lineage differentiation capacity. Thirdly, to further investigate the potential of CASIN to vacate the BM niche after mobilization, six-color staining of the BM cells was performed from C57Bl/6 mice with or without CASIN treatment followed by FACS analysis. […]

[2] = system: PIP2 induced F-actin assembly; conditions: PIP2 induced F-actin assembly in xenopus egg extracts; read-out: IC50 (dose required to inhibit the maximum polymerization rate by 50%); cited from earlier work
Cdc42 [3] = molecular target: Cdc42 (Homo sapiens, UniProt P60953); experiment: nucleotide exchange: intersectin-induced association of mant-GDP with Cdc42; assay type: biochemical; conditions: FIG. 1b
Source text: For example, even at 10 times the IC50 of Cdc42, a 50% inhibition of the association of mant-GDP with Rac or Rho was not achieved.

Sequence of Cdc42 (Mus musculus, UniProt P60766) (P60766 whole entry): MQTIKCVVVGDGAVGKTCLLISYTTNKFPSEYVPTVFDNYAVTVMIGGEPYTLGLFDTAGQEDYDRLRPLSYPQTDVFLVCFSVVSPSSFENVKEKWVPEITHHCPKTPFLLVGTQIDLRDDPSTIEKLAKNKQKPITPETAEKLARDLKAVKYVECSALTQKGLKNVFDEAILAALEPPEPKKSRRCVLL
Sequence of Cdc42 (Homo sapiens, UniProt P60953) (P60953 whole entry, species assumed): as the sequence (P60766 whole entry) above

Compound: OCCNC1CCCc2c1[nH]c1ccc(-c3ccccc3)cc21 (stereo not shown) [CASIN]
- engraftment of donor derived cells in recipient B6.BoyJ mice (murine HSCs): significant engraftment of donor derived cells in a dilution-dependent pattern
- MEF cells' ability of adhesion, migration and actin polymerization (Cdc42WT/WT MEF cells): impairs
- migration of 32D progenitor cells towards SDF1α gradient (32D myeloid progenitors): significantly reduced migration
- mobilization of HSC/Ps (LSK cells, progenitor colonies) in Fancc−/− mice (Fancc−/− mice): effective mobilizer
- Cdc42 activity in LDBM cells after in vivo administration (Cdc42 [1]): really down
- IC50 [2]: 2000 nM
- association of mant-GDP with Cdc42 induced by intersectin (Cdc42 [3]): dose-dependent inhibition

— patent US9433663B2, “Mobilization of hematopoietic stem cells” (Children's Hospital Medical Center, priority 2008, dated 2016)
